These results are taken from patent US20160361311A1, “LIGANDS THAT TARGET HEPATITIS C VIRUS E2 PROTEIN” (AMERICAN UNIVERSITY OF CAIRO, priority 2014, published 2016).

Experiment [1] deals with E2 (Hepatitis C virus genotype 1a, UniProt P27958). As to the kind of experiment: Binding of CD81 ligand 73735 to E2 (method not given). More on the design: species or system HCV.
The target of experiment [2] is T1, recombinant E2 protein (Hepatitis C virus genotype 1b, UniProt Q9WMX2).
T1 construct: encoding amino acids 384-656 of the Con1 envelope protein 2 ectodomain (eE2); made in house; host or cells: HEK293T cells (lentiviral, secreted)
T1 sequence (Q9WMX2 384-656): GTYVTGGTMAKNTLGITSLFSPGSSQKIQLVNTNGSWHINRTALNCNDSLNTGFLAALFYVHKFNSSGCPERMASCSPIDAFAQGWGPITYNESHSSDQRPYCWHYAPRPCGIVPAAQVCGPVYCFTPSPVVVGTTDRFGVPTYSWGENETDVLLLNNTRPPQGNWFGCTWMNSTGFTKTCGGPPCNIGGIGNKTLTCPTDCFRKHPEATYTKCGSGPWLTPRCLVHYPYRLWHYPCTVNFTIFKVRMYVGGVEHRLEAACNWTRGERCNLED
As to the kind of experiment: Surface plasmon resonance (Biacore T100) binding to recombinant E2 immobilized on CM5 chip. The conditions noted are these: for Binding (RU): 200 μM ligand in PBS, 3 min association; for Dissociation 1 (RU): response remaining 10 sec after rinsing with buffer; for Dissociation 2 (RU): response remaining 50 sec after rinsing with buffer. The text has this:
A construct containing the sequence encoding amino acids 384-656 of the Con1 envelope protein 2 ectodomain (eE2), a genoptype 1 E2 sequence, was cloned into a lentiviral expression vector with a carboxy-terminal Protein A tag separated by a PreScission Protease cleavage consensus sequence. eE2-ProtA was stably expressed in HEK293T cells using lentiviral infection. The protein was secreted into the media and supernatants were purified using IgG Sepharose (GE Healthcare, Piscataway, N.J.). eE2-ProtA was eluted with 100 mM sodium citrate and 20 mM KCl at pH 3 directly into tubes containing 1M Tris pH 9 for immediate neutralization. PreScission Protease was added to the eluted sample at a ratio of 1:50 (enzyme:eE2), and the digest was then dialyzed into 20 mM HEPES pH 7.5, 250 mM NaCl, 5% glycerol. eE2 was separated from the cleaved tag and the PreScission Protease by ion exchange chromatography.
The set of 34 of the ligands predicted by AutoDock to bind to E2 were tested experimentally to determine if they bind to recombinant E2 protein immobilized on a chip using surface Plasmon resonance. The SPR analyses were performed using a Biacore T100 workstation (GE Healthcare, NJ, USA) and Prot-A-tagged HCV E2 protein. 1 μM ProtA-HCV E2 was diluted into 10 mM sodium acetate buffer pH 5 and immobilized for 15 min at a flow speed of 5 μl/min onto a CM5 sensor chip using amine coupling (EDC-NHS). Approximately 10,000 response units (RU) of protein were immobilized on the chip. His-CD81-LEL (Bioclone-CA/USA) binding to HCV E2 was tested prior to injecting the ligands to confirm the E2 protein was functional and would bind CD81-LEL. In a typical experiment with CD81, […] of his-CD81 in 114 μl PBS was injected into channel 2 and 106.4 RUs of CD81 bound to the E2 on the chip. This was followed by testing the binding of the 34 virtual screening hits where the ligands were prepared as 200 μM solutions in PBS and they were introduced to the protein using a pre-programmed 3 min association and 1 min dissociation interval. The response was measured at two time points during dissociation, 10 and 50 seconds, to obtain information on the rate of ligand dissociation from E2. Twenty-three of the ligands predicted by AutoDock to bind to E2 were observed by SPR to bind to the recombinant protein (Table 2). The measured responses for the ligands that bound varied from 54 to 276 RUs. Data was also obtained on the rate of ligand dissociation by measuring the amount of ligand remaining bound at two time points, dissociation 1 (10 seconds) and dissociation 2 (50 seconds), during the rinsing of the chip with buffer (FIG. 8). The majority of the ligands dissociated quickly, as one might expect for small molecules that bind to the surface of a protein.
On the technique in general: Surface plasmon resonance follows binding to a sensor surface in real time, without labels.

Experiment [3] deals with RD114pp. As to the kind of experiment: RD114pp infection of Huh-7 cells (luciferase). Format: cell-based, feline endogenous virus RD114. As to conditions: Feline endogenous virus RD114, Huh-7, 30 h, read-out: IC50 RD114pp. On the procedure: (§1) Pseudotyped retroviral particles harboring HCV envelope proteins (HCVpp) from different genotypes were produced as described previously. A plasmid encoding the feline endogenous virus RD114 glycoprotein [35] was used for the production of RD114pp. Both HCVpp and RD114pp expressed Firefly luciferase.
(§2) To identify ligands that inhibit HCV infection, Huh-7 cells were seeded in 96-well plates and treated the day after with six different concentrations of each ligand diluted in DMSO in duplicate using a Zephyr automated liquid handling workstation (Caliper BioSciences, Hopkinton, Mass.). The final concentration of DMSO (1%) was adjusted to be the same for all ligand concentrations. Cells treated with DMSO were used as negative controls. Cells treated with different concentrations of anti-CD81 (JS-81 from BD Pharmingen, San Jose, Calif.) 1 hour before infection, were also used as positive controls. The third day, RD114pp, HCVpp or HCVcc were inoculated and incubated for 30 hours at 37° C. Firefly and Gaussia luciferase assays were performed as indicated by the manufacturer (Promega, San Luis Obispo, Calif.).
Pseudotyped retroviral particles harboring the envelope protein of an endogenous feline retrovirus (RD114pp) were first used to determine the specificity and the safety of molecules.

The subject of experiment [4] is HCVpp 2a. As to the kind of experiment: HCVpp 2a infection of Huh-7 cells, 96-well (luciferase). The format is cell-based, HCV. As to conditions: Hepatitis C virus, Huh-7, 30 h, read-out: IC50 HCVpp. The protocol: as §1, §2
(§3) The remaining ligands were next tested against pseudotyped retroviral particles harboring genotype-2a HCV envelope proteins (HCVpp 2a), cell culture produced HCV particles (HCVcc) or RD114pp. As a positive control, an anti-CD81 antibody was used in parallel.

Experiment [5] concerns HCVcc. As to the kind of experiment: HCVcc infection of Huh-7 cells (Gaussia luciferase). Format: cell-based, HCV. As to conditions: Hepatitis C virus, Huh-7, 30 h, read-out: IC50 HCVcc. The protocol: The cell culture-produced HCV particles (HCVcc) used in this study were based on the JFH1 strain [36] and were prepared as described previously. They were engineered to express the A4 epitope, titer-enhancing mutations and Gaussia luciferase.
as §2, §3

pIC50: −log10 of the molar value. Where only a bound is given, the exact number is not on record here.

Sequence of E2 (P27958 384-746): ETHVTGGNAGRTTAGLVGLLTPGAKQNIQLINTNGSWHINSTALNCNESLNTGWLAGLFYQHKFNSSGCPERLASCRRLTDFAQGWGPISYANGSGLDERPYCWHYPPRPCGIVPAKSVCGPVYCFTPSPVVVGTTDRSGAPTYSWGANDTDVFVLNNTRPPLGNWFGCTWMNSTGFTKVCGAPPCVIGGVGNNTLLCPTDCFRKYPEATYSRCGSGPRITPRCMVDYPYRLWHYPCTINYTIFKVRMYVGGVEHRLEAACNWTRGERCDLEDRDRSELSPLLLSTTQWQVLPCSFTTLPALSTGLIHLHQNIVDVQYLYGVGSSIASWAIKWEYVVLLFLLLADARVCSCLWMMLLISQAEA

Turning to `COc1cc(-c2ccc(Nc3ccccc3C(=O)O)c(OC)c2)ccc1Nc1ccccc1C(=O)O` [Ligand 73735], the “binding to E2 (in words)” value in experiment [1] is listed as “determined to bind to E2”.
The term pIC50 denotes the IC50 on a negative log10 scale, so that one unit is a factor of ten. With `O=S(=O)(F)c1ccc2nc(-c3cccc(Sc4ccccc4)c3)cc(Cl)c2c1` [Ligand 158413, 4-chloro-2-(3-phenylsulfanylphenyl) quinoline-6-sulfonyl fluoride], in experiment [2], the “Binding (RU)” value was 71.2 RU, the “Dissociation 1 (RU)” value is 10.3 RU and the “Dissociation 2 (RU)” value is on record as 8.5 RU. Also, in experiment [2] (compared to the other ligands), the “rate of ligand dissociation (in words)” value is listed as “slower off rates”. For the same compound, in experiment [3], the pIC50 was under 5.00. The pIC50 in experiment [4] is under 5.00. For the same compound, the pIC50 in experiment [5] is under 5.00.
For `O=C(Nc1cccc([N+](=O)[O-])c1)c1cccc(C(=O)Nc2cccc([N+](=O)[O-])c2)c1` [Ligand 204232], in experiment [2], the “Binding (RU)” value came to 63.4 RU, the “Dissociation 1 (RU)” value was 2.5 RU and the “Dissociation 2 (RU)” value is 0.4 RU. In addition, the negative logarithm of the IC50 (pIC50) in experiment [3] was under 5.00. In addition, the pIC50 in experiment [4] is under 5.00. Also, the pIC50 in experiment [5] was under 5.00.
On to `Cc1ccc([N+](=O)[O-])cc1NC(=O)Nc1onc(C)c1C` [Ligand 213700, 1-(3,4-dimethyl-1,2-oxazol-5-yl)-3-(2-methyl-5-nitrophenyl)urea], for which, in experiment [2], the “Binding (RU)” value came to 62 RU, the “Dissociation 1 (RU)” value stood at 3.1 RU and the “Dissociation 2 (RU)” value amounted to 0.8 RU. The pIC50 in experiment [3] was under 5.00. Further, the pIC50 in experiment [4] is under 5.00. In addition, the pIC50 in experiment [5] was under 5.00.
With `Cc1cc(-c2ccc(N3C(=O)CC4(CCCC4)C3=O)c(C)c2)ccc1N1C(=O)CC2(CCCC2)C1=O` [Ligand 308835, 2-[4-[4-(1,3-dioxo-2-azaspiro[4.4]nonan-2-yl)-3-methylphenyl]-2-methylphenyl]-2-azaspiro[4.4]nonane-1,3-dione], in experiment [2], the “Binding (RU)” value worked out at 64.8 RU, the “Dissociation 1 (RU)” value is recorded as 7.1 RU and the “Dissociation 2 (RU)” value stood at 5.2 RU. Besides, in experiment [3], the negative logarithm of the IC50 (pIC50) is under 5.00. Further, in experiment [4], the pIC50 is under 5.00. In experiment [5], the pIC50 was under 5.00.
For the compound `CCCc1nc(NC(=O)c2ccccc2)nc(NC(=O)c2ccccc2)n1` [Ligand 359472, N-(4-benzamido-6-propyl-1,3,5-triazin-2-yl)benzamide], in experiment [2], the “Binding (RU)” value was 62 RU, the “Dissociation 1 (RU)” value is recorded as 2.5 RU and the “Dissociation 2 (RU)” value is given as 0.8 RU. Moreover, the pIC50 in experiment [3] was under 5.00. Besides, in experiment [4], the pIC50 is under 5.00. For the same compound, in experiment [5], the negative logarithm of the IC50 (pIC50) was under 5.00.
With `NC1=Nc2ccccc2C(=O)[N+]1=C(N)N` [Ligand 403379, 2-amino-3-(diaminomethylidene) quinazolin-3-ium-4-one], in experiment [2], the “Binding (RU)” value came to 58 RU. The “Dissociation 1 (RU)” value in experiment [2] turned out to be 2.8 RU. Also, in experiment [2], the “Dissociation 2 (RU)” value turned out to be 1.1 RU. For the same compound, the pIC50 in experiment [3], in experiment [4] and in experiment [5] was under 5.00 each time.
